Test results taken from PubChem BioAssay (NCI).
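A five-concentration, 48-hour dose response in 96-well plates underlies each endpoint, interpolated linearly between surrounding concentrations. At the TGI there is no net growth.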

Key:
Assay in all cases: inhibition of tumour cell growth, NCI panel, 48 h
[1] = system: SF-268 CNS
[2] = system: EKVX NSCLC
[3] = system: U251 CNS
[4] = system: A549 NSCLC
[5] = system: K-562 leukemia
[6] = system: SK-MEL-2 melanoma
[7] = system: NCI-H226 lung
[8] = system: UO-31 renal
[9] = system: HT29 colon
[10] = system: SF-539 CNS
[11] = system: LOX IMVI melanoma
[12] = system: CCRF-CEM leukemia
[13] = system: SK-MEL-28 melanoma
[14] = system: UACC-62 melanoma
[15] = system: MDA-MB-231 breast
[16] = system: MDA-N
[17] = system: PC-3 prostate
[18] = system: BT-549 breast

SMILES	TGI [1]	TGI [2]	TGI [3]	TGI [4]	TGI [5]	TGI [6]	TGI [7]	TGI [8]	TGI [9]	TGI [10]	TGI [11]	TGI [12]	TGI [13]	TGI [14]	TGI [15]	TGI [16]	TGI [17]	TGI [18]
CCOc1ccc(NC(=O)C2=C(C)NC(C)=C(C(=O)Nc3ccc(OCC)cc3)C2c2ccc(O)c(OC)c2)cc1	> 100 µM	> 100 µM	> 100 µM	> 100 µM	> 100 µM	> 100 µM	> 100 µM	> 100 µM	> 100 µM	83.6 µM	> 100 µM	> 100 µM	> 100 µM	–	–	–	–	–
COc1ccc(N(CN2C(=O)CCC2C(=O)O)C(C)=O)cc1 (stereo not drawn)	> 100 µM	> 100 µM	> 100 µM	> 100 µM	> 100 µM	> 100 µM	> 100 µM	> 100 µM	> 100 µM	> 100 µM	> 100 µM	> 100 µM	> 100 µM	> 100 µM	> 100 µM	> 100 µM	> 100 µM	–
Cc1ccccc1C1OC(=O)c2ccccc21 (stereo not drawn)	> 100 µM	> 100 µM	> 100 µM	> 100 µM	> 100 µM	> 100 µM	> 100 µM	> 100 µM	> 100 µM	> 100 µM	> 100 µM	> 100 µM	> 100 µM	> 100 µM	–	–	–	–
N#Cc1c2c(c(Nc3cccc(C(F)(F)F)c3)n3c1nc1ccccc13)CCC2	> 100 µM	> 100 µM	> 100 µM	–	–	–	> 100 µM	–	> 100 µM	> 100 µM	> 100 µM	–	> 100 µM	–	> 100 µM	–	–	> 100 µM
O=C1[C@@H]2C(c3ccc(Cl)cc3Cl)=NO[C@@H]2C(=O)N1c1ccc(Cc2ccc(N3C(=O)[C@H]4C(c5ccc(Cl)cc5Cl)=NO[C@H]4C3=O)cc2)cc1	> 100 µM	> 100 µM	–	> 100 µM	> 100 µM	> 100 µM	> 100 µM	> 100 µM	> 100 µM	> 100 µM	> 100 µM	> 100 µM	> 100 µM	> 100 µM	–	–	–	–
CC(=O)O[C@]12CCCCC1C1(O)C(O)CCCCC12 (stereo partly drawn)	> 100 µM	> 100 µM	> 100 µM	> 100 µM	> 100 µM	> 100 µM	> 100 µM	> 100 µM	> 100 µM	–	> 100 µM	> 100 µM	> 100 µM	> 100 µM	–	–	–	–
COc1ccccc1/C=C(\C#N)C(=O)c1ccccc1	> 100 µM	> 100 µM	> 100 µM	> 100 µM	> 100 µM	> 100 µM	> 100 µM	> 100 µM	> 100 µM	> 100 µM	> 100 µM	> 100 µM	> 100 µM	> 100 µM	–	–	–	–
NC(=O)c1cccc(C2OC(COP(=O)(O)O)C(O)C2O)c1 (stereo not drawn)	> 50 µM	> 50 µM	> 50 µM	> 50 µM	> 50 µM	> 50 µM	> 50 µM	> 50 µM	> 50 µM	> 50 µM	> 50 µM	> 50 µM	> 50 µM	> 50 µM	–	–	–	–
CN(C)c1nc2oc(-c3ccccc3)c(-c3ccccc3)c2c2nncn12	> 100 µM	> 100 µM	> 100 µM	> 100 µM	> 100 µM	–	> 100 µM	> 100 µM	> 100 µM	> 100 µM	> 100 µM	> 100 µM	> 100 µM	> 100 µM	> 100 µM	–	–	–
O=C(CC(=O)Nc1cccc(Cl)c1)NNCC(=O)Nc1nnc(-c2ccccc2)s1	> 100 µM	> 100 µM	> 100 µM	> 100 µM	> 100 µM	> 100 µM	75.7 µM	> 100 µM	> 100 µM	> 100 µM	> 100 µM	–	> 100 µM	> 100 µM	–	–	–	–
CCOc1ccc(Nc2nc3c(s2)C(=O)c2ccccc2C3=O)cc1	16.7 µM	50.4 µM	20.7 µM	44.3 µM	> 100 µM	30.6 µM	–	28.4 µM	–	35.7 µM	15.8 µM	> 100 µM	36.1 µM	5.13 µM	18.4 µM	3.69 µM	20 µM	–
Nc1nc(NCCO)c(N=O)c(=O)[nH]1	> 100 µM	> 100 µM	> 100 µM	> 100 µM	> 100 µM	> 100 µM	> 100 µM	> 100 µM	> 100 µM	> 100 µM	> 100 µM	> 100 µM	> 100 µM	> 100 µM	–	–	–	–
COc1ccc(/C(Cl)=C(/c2ccc(O)cc2)c2ccc(OCCN(C)C)cc2)cc1	24.7 µM	30.3 µM	23.3 µM	26.7 µM	–	22.4 µM	34.4 µM	19.7 µM	6.49 µM	23.8 µM	12.6 µM	–	13.4 µM	32.9 µM	–	–	–	–
Cc1nc2ccc(Cl)cc2c2c1CCS2	> 100 µM	–	> 100 µM	> 100 µM	> 100 µM	> 100 µM	> 100 µM	> 100 µM	> 100 µM	> 100 µM	> 100 µM	> 100 µM	> 100 µM	> 100 µM	> 100 µM	> 100 µM	> 100 µM	–
Cc1cc2c(cc1Cl)SC(c1ccccc1)C(=O)NS2(=O)=O (stereo not drawn)	> 100 µM	> 100 µM	60.5 µM	–	> 100 µM	32.9 µM	> 100 µM	75.1 µM	> 100 µM	73.3 µM	> 100 µM	> 100 µM	> 100 µM	–	> 100 µM	> 100 µM	70.7 µM	–
CCOC(=O)[C@]12C(=C(c3ccccc3)O[C@H]3C=CCC[C@H]31)C(=O)C(=O)N2c1ccccc1	> 100 µM	–	38.6 µM	> 100 µM	84.5 µM	> 100 µM	–	> 100 µM	> 100 µM	> 100 µM	–	–	–	> 100 µM	> 100 µM	–	> 100 µM	–
